Results reported in PubChem BioAssay AID1963832 (Molecular Pharmacology Branch, DTP, NCI, 2024).

Tested on: 885724-159-R-J1-PDC complex spheroid viability
Experiment: Anticancer human tumor 885724-159-R-J1-PDC patient-derived pancreatic adenocarcinoma cell line growth inhibition [POLQ]
Conditions: for IC50: curve of first compound; for viability, T/C: stronger effect = lower value
Protocol: Multicellular complex tumor spheroid response to Polymerase (POL) inhibitors (novobiocin, ART-558, RP6685) in combination with a variety of drugs and investigational agents in selected tumor cell lines
The POL inhibitors (novobiocin, ART-558, and RP6685) were evaluated both individually and in combination with standard of care and investigational anticancer small molecules within a complex spheroid model of solid tumors. . Complex spheroids include a stromal component modeled by human endothelial cells (HUVEC) and fibroblasts modeled by human mesenchymal stem cells (MSCs). The concentration ranges selected for each drug and investigational agent were based upon clinically achievable concentrations if the clinical Cmax of the agent was known.
Compounds. The drugs and investigational agents: novobiocin (NSC847541), ART-558 (NSC835418), RP-6685 (NSC848927), peposertib (NSC802822), ceralasertib (NSC780249), elimusertib (NSC800525), camonsertib (NSC841442), AZD-1390 (NSC803789), olaparib (NSC753686), talazoparib (NSC767125), rucaparib (NSC756644), sotorasib (NSC818433), MRTX-1133 (NSC836407), SN-38 (NSC673596), topotecan (NSC609699), epotoside (NSC141540), doxorubicin (NSC123127), gemcitabine (NSC613327), 5-fluorouracil (NSC19893), paclitaxel (NSC125973), vemurafenib (NSC761431), MSA-2 (NSC828583), SN-011 (NSC837082), adavosertib (NSC754352), prexasertib (NSC758257), carboplatin (NSC241240) and oxaliplatin (NSC266046), were obtained from the National Cancer Institute (NCI) Developmental Therapeutics Program Chemical Repository (21). The FDA-approved anticancer drug set is available from the Developmental Therapeutics Program at https://dtp.cancer.gov/organization/dscb/obtaining/. […] The stock solutions were prepared in dimethyl sulfoxide (DMSO, Sigma-Aldrich, St. Louis, MO, cat. D2650), except for the platinum compounds which were prepared in saline (Quality Biological, Gaithersburg, MD, cat. 114-055-101), at 800-fold the tested concentration and stored at -70 degrees C prior to their use. All drugs and investigational agents were tested over a range starting from a high concentration at or near the clinical Cmax and decreasing in half-log increments. If the clinical Cmax for an agent had not been determined, the highest concentration tested was 10 microM, except for SN-38, which was tested at a high concentration of 1 microM.
Cell Culture. All cells were maintained in an incubator at 37 degrees C and 5% CO2 with 95% humidity. The PDC lines were cultured according to standard operating procedures established by the NCI PDMR (https://pdmr.cancer.gov). Table 3 of the manuscript, lists the cell lines along with the number of the three cell types plated to form the mct-spheroids and media for tumor cell growth. After thawing, all PDC lines, except 997537-175-T-J1-PDC and 415267-285-R-J2-PDC, were cultured in Matrigel-coated flasks prepared with a working solution of 1X Ham's F-12 nutrient mix, without supplementation (Thermo Fisher Scientific, cat. 11765054), 100 U/mL penicillin-streptomycin (Thermo Fisher Scientific, cat. 15140122), and 2.5% Matrigel (Corning Inc., Corning, NY, cat. 354248) for the first three passages. The two PDC lines 997537-175-T-J1-PDC and 415267-285-R-J2-PDC were cultured on uncoated flasks. The 857933-349-R-J2-PDC line was cultured in 6C/Colon 1B media containing advanced DMEM/F-12 (Thermo Fisher Scientific, cat. 12634028), 10 mM HEPES (Thermo Fisher Scientific, cat. 15630080), 1X GlutaMAX supplement (Thermo Fisher Scientific, cat. 35050061), 0.1 mg/mL primocin (InvivoGen, San Diego, CA, cat. ant-pm-2), 10% defined fetal bovine serum, heat inactivated (HyClone Laboratories Inc., Logan, UT, cat. SH30070.03HI), 50% L-WRN conditioned media (ATCC, cat. CRL-3276), 1.25 mM N-Acetyl-L-cysteine (Sigma-Aldrich, cat. A9165), 10 mM nicotinamide (Sigma-Aldrich, cat. N0636), 1X B-27 supplement (Thermo Fisher Scientific, cat. 17504044), 1X N-2 supplement (Thermo Fisher Scientific, cat. […]

[1] = second compound 0.0316 µM, first compound 0.0316 µM
[2] = second compound 0.0316 µM, first compound 0.1 µM
[3] = second compound 0.0316 µM, first compound 0.316 µM
[4] = second compound 0.0316 µM, first compound 1 µM
[5] = second compound 0.0316 µM, first compound 3.16 µM
[6] = second compound 0.0316 µM, first compound 10 µM
[7] = second compound 0.1 µM, first compound 0.0316 µM
[8] = second compound 0.1 µM, first compound 0.1 µM
[9] = second compound 0.1 µM, first compound 0.316 µM
[10] = second compound 0.1 µM, first compound 1 µM
[11] = second compound 0.1 µM, first compound 3.16 µM
[12] = second compound 0.1 µM, first compound 10 µM
[13] = second compound 0.316 µM, first compound 0.0316 µM
[14] = second compound 0.316 µM, first compound 0.1 µM
[15] = second compound 0.316 µM, first compound 0.316 µM
[16] = second compound 0.316 µM, first compound 1 µM
[17] = second compound 0.316 µM, first compound 3.16 µM
[18] = second compound 0.316 µM, first compound 10 µM
[19] = second compound 1 µM, first compound 0.0316 µM
[20] = second compound 1 µM, first compound 0.1 µM
[21] = second compound 1 µM, first compound 0.316 µM
[22] = second compound 1 µM, first compound 1 µM
[23] = second compound 1 µM, first compound 3.16 µM
[24] = second compound 1 µM, first compound 10 µM
[25] = second compound 3.16 µM, first compound 0.0316 µM
[26] = second compound 3.16 µM, first compound 0.1 µM
[27] = second compound 3.16 µM, first compound 0.316 µM
[28] = second compound 3.16 µM, first compound 1 µM
[29] = second compound 3.16 µM, first compound 3.16 µM
[30] = second compound 3.16 µM, first compound 10 µM
[31] = second compound 10 µM, first compound 0.0316 µM
[32] = second compound 10 µM, first compound 0.1 µM
[33] = second compound 10 µM, first compound 0.316 µM
[34] = second compound 10 µM, first compound 1 µM
[35] = second compound 10 µM, first compound 3.16 µM
[36] = second compound 10 µM, first compound 10 µM
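Note: spheroids exposed to compounds for 7 days.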

## C=CC(=O)N1CCN(c2nc(=O)n(-c3c(C)ccnc3C(C)C)c3nc(-c4c(O)cccc4F)c(F)cc23)C(C)C1 (centres undefined) + Nc1ccc(C#CCN(C(=O)Cc2ncc(C(F)(F)F)cc2C(F)(F)F)c2ccc(F)cc2)nn1
Second compound 0.0316 µM
  IC50: > 10 µM
Second compound 0.1 µM
  IC50: > 10 µM
Second compound 0.316 µM
  IC50: > 10 µM
Second compound 1 µM
  IC50: > 10 µM
Second compound 3.16 µM
  IC50: > 10 µM
Second compound 10 µM
  IC50: > 10 µM
[1]
  viability, T/C: 96.3%
[2]
  viability, T/C: 86%
[3]
  viability, T/C: 101%
[4]
  viability, T/C: 106%
[5]
  viability, T/C: 103%
[6]
  viability, T/C: 98.6%
[7]
  viability, T/C: 108%
[8]
  viability, T/C: 112%
[9]
  viability, T/C: 110%
[10]
  viability, T/C: 102%
[11]
  viability, T/C: 122%
[12]
  viability, T/C: 94%
[13]
  viability, T/C: 96.5%
[14]
  viability, T/C: 102%
[15]
  viability, T/C: 105%
[16]
  viability, T/C: 102%
[17]
  viability, T/C: 110%
[18]
  viability, T/C: 90.4%
[19]
  viability, T/C: 96.4%
[20]
  viability, T/C: 87.5%
[21]
  viability, T/C: 93.2%
[22]
  viability, T/C: 109%
[23]
  viability, T/C: 110%
[24]
  viability, T/C: 97.3%
[25]
  viability, T/C: 96.9%
[26]
  viability, T/C: 92.9%
[27]
  viability, T/C: 98.4%
[28]
  viability, T/C: 100%
[29]
  viability, T/C: 117%
[30]
  viability, T/C: 83.6%
[31]
  viability, T/C: 95.7%
[32]
  viability, T/C: 104%
[33]
  viability, T/C: 98.6%
[34]
  viability, T/C: 111%
[35]
  viability, T/C: 97.5%
[36]
  viability, T/C: 91.1%

## CC1COCCN1c1cc(C2(S(C)(=N)=O)CC2)nc(-c2ccnc3[nH]ccc23)n1 (centres undefined) + Nc1ccc(C#CCN(C(=O)Cc2ncc(C(F)(F)F)cc2C(F)(F)F)c2ccc(F)cc2)nn1
Second compound 0.0316 µM
  IC50: > 10 µM
Second compound 0.1 µM
  IC50: 7.07 µM
Second compound 0.316 µM
  IC50: > 10 µM
Second compound 1 µM
  IC50: 6.07 µM
Second compound 3.16 µM
  IC50: 8 µM
Second compound 10 µM
  IC50: > 10 µM
[1]
  viability, T/C: 87.3%
[2]
  viability, T/C: 89.6%
[3]
  viability, T/C: 90.4%
[4]
  viability, T/C: 75.9%
[5]
  viability, T/C: 55.7%
[6]
  viability, T/C: 50%
[7]
  viability, T/C: 104%
[8]
  viability, T/C: 94.5%
[9]
  viability, T/C: 94%
[10]
  viability, T/C: 71.5%
[11]
  viability, T/C: 57.8%
[12]
  viability, T/C: 46.7%
[13]
  viability, T/C: 95.3%
[14]
  viability, T/C: 97.2%
[15]
  viability, T/C: 83.4%
[16]
  viability, T/C: 63.4%
[17]
  viability, T/C: 55.5%
[18]
  viability, T/C: 53.2%
[19]
  viability, T/C: 95.3%
[20]
  viability, T/C: 85.1%
[21]
  viability, T/C: 87.8%
[22]
  viability, T/C: 75.9%
[23]
  viability, T/C: 55.8%
[24]
  viability, T/C: 45.4%
[25]
  viability, T/C: 94.3%
[26]
  viability, T/C: 88.6%
[27]
  viability, T/C: 91.1%
[28]
  viability, T/C: 69.9%
[29]
  viability, T/C: 53.5%
[30]
  viability, T/C: 48.4%
[31]
  viability, T/C: 95.6%
[32]
  viability, T/C: 99.7%
[33]
  viability, T/C: 94.7%
[34]
  viability, T/C: 64.1%
[35]
  viability, T/C: 57.8%
[36]
  viability, T/C: 47%
